The values that follow are results of earlier work, collected in paper PMC12388126, “Photochemically Assisted Synthesis of Thienobenzotriazole-Based Dual Cholinesterase Inhibitors” (Molecules, 2025).

In general, IC50 refers to the midpoint of a concentration-inhibition curve.

In this data set the test system is LPS-induced TNF-α production. Set-up: method as in PMID 40732321. The following applies: read-out: IC50, inhibition of LPS-induced TNF-α production; cited from earlier work.

For `Cc1ccc(C[n+]2nn(Cc3cccc(F)c3)c3c4ccsc4ccc32)cc1` [F], the IC50 is 660 nM.
